Laboratory results taken from patent publication US9695155B2, “Herbicidal substituted pyrimidinyloxy benzene compounds” (E. I. DU PONT DE NEMOURS AND COMPANY, priority 2013, dated 2017).

Assays:
[1] = system: large (Lg) crabgrass; test: Test A preemergence; format: in vivo, Digitaria sanguinalis; conditions: 0 to 100 scale where 0 is no effect and 100 is complete control; for Plant response rating, Crabgrass, Large: 125 g ai/ha; for Crabgrass, Large plant response rating: 500 g ai/ha
How it was run: (§1)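 Greenhouse pot test, loam/sand soil. Formulation: non-phytotoxic solvent mix plus surfactant. Pre: directed spray onto soil after sowing. Post: plants at 1–2 leaf, 2–10 cm. Rated visually vs untreated controls at ~10 d, 0 (no effect) to 100 (complete control).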

[2] = system: giant foxtail; test: Test A preemergence; format: in vivo, Setaria faberii; conditions: 0 to 100 scale where 0 is no effect and 100 is complete control; for Plant response rating, Foxtail, Giant: 125 g ai/ha; for Foxtail, Giant plant response rating: 500 g ai/ha
How it was run: as §1

[3] = system: pigweed; test: Test A preemergence; format: in vivo, Amaranthus retroflexus; conditions: for Pigweed plant response rating (0 to 100 scale): 125 g ai/ha; for Pigweed plant response rating: 500 g ai/ha, 0 to 100 scale where 0 is no effect and 100 is complete control
How it was run: as §1

[4] = system: velvetleaf; test: Test A preemergence; format: in vivo, Abutilon theophrasti; conditions: for Velvetleaf plant response rating (0 to 100 scale): 125 g ai/ha; for Velvetleaf plant response rating: 500 g ai/ha, 0 to 100 scale where 0 is no effect and 100 is complete control
How it was run: as §1

[5] = system: large (Lg) crabgrass; test: Test A postemergence; format: in vivo, Digitaria sanguinalis; conditions: 0 to 100 scale where 0 is no effect and 100 is complete control; for Crabgrass, Large plant response rating: 125 g ai/ha; for Plant response rating, Crabgrass, Large: 500 g ai/ha
How it was run: as §1

[6] = system: giant foxtail; test: Test A postemergence; format: in vivo, Setaria faberii; conditions: 0 to 100 scale where 0 is no effect and 100 is complete control; for Foxtail, Giant plant response rating: 125 g ai/ha; for Plant response rating, Foxtail, Giant: 500 g ai/ha
How it was run: as §1

[7] = system: pigweed; test: Test A postemergence; format: in vivo, Amaranthus retroflexus; conditions: 0 to 100 scale where 0 is no effect and 100 is complete control; for Pigweed plant response rating: 125 g ai/ha; for Plant response rating, Pigweed: 500 g ai/ha
How it was run: as §1

[8] = system: velvetleaf; test: Test A postemergence; format: in vivo, Abutilon theophrasti; conditions: 0 to 100 scale where 0 is no effect and 100 is complete control; for Velvetleaf plant response rating: 125 g ai/ha; for Plant response rating, Velvetleaf: 500 g ai/ha
How it was run: as §1

[9] = system: wheat, winter; test: Test C postemergence; format: in vivo, Triticum aestivum; conditions: for Plant response rating (0 to 100), Wheat: 0 is no effect, 100 is complete control; for Wheat plant response rating: 31 g ai/ha, 13 to 15 days; for Wheat plant response rating / Plant response rating, Wheat: scale 0 to 100 (0 no effect, 100 complete control)
How it was run: (§2)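 Visual injury score versus untreated controls, 0 = no effect, 100 = complete control, taken 13 to 15 days after treatment in the greenhouse. Pre-emergence pots held loam/sand; post-emergence plants grew in sphagnum peat/vermiculite mix and were sprayed at the 1- to 4-leaf stage.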

[10] = system: giant foxtail; test: Test C postemergence; format: in vivo, Setaria faberii; conditions: for Plant response rating (0 to 100), Foxtail, Giant: 0 is no effect, 100 is complete control; for Foxtail, Giant plant response rating: 31 g ai/ha, 13 to 15 days; for Foxtail, Giant plant response rating / Plant response rating, Foxtail, Giant: scale 0 to 100 (0 no effect, 100 complete control)
How it was run: as §2

[11] = system: ragweed; test: Test C postemergence; format: in vivo, Ambrosia elatior; conditions: for Plant response rating (0 to 100), Ragweed: 0 is no effect, 100 is complete control; for Ragweed plant response rating: 31 g ai/ha, 13 to 15 days; for Ragweed plant response rating / Plant response rating, Ragweed: scale 0 to 100 (0 no effect, 100 complete control)
How it was run: as §2

[12] = system: soybean; test: Test C postemergence; format: in vivo, Glycine max; conditions: for Plant response rating (0 to 100), Soybean: 0 is no effect, 100 is complete control; for Soybean plant response rating: 31 g ai/ha, 13 to 15 days; for Soybean plant response rating / Plant response rating, Soybean: scale 0 to 100 (0 no effect, 100 complete control)
How it was run: as §2

[13] = system: wild oat; test: Test C postemergence; format: in vivo, Avena fatua; conditions: for Plant response rating (0 to 100), Oat, Wild: 0 is no effect, 100 is complete control; for Oat, Wild plant response rating: 31 g ai/ha, 13 to 15 days; for Oat, Wild plant response rating / Plant response rating, Oat, Wild: scale 0 to 100 (0 no effect, 100 complete control)
How it was run: as §2

[14] = system: velvetleaf; test: Test C postemergence; format: in vivo, Abutilon theophrasti; conditions: for Plant response rating (0 to 100), Velvetleaf: 0 is no effect, 100 is complete control; for Velvetleaf plant response rating: 31 g ai/ha, 13 to 15 days; for Velvetleaf plant response rating / Plant response rating, Velvetleaf: scale 0 to 100 (0 no effect, 100 complete control)
How it was run: as §2

[15] = system: chickweed; test: Test C postemergence; format: in vivo, Stellaria media; conditions: for Plant response rating (0 to 100), Chickweed: 0 is no effect, 100 is complete control; for Chickweed plant response rating: 31 g ai/ha, 13 to 15 days; for Chickweed plant response rating / Plant response rating, Chickweed: scale 0 to 100 (0 no effect, 100 complete control)
How it was run: as §2

[16] = 125 g ai/ha, postemergence, visual rating

For O=Cc1cccc(Oc2ncc(I)cn2)c1-n1cc(Br)cn1 [Compound 172], the “Plant response rating, Crabgrass, Large” value [1] was 0, the “Crabgrass, Large plant response rating” value [1] was 30 and the “Plant response rating, Foxtail, Giant” value [2] was 0. The “Foxtail, Giant plant response rating” value [2] was 0, the “Pigweed plant response rating (0 to 100 scale)” value [3] was 0 and the “Pigweed plant response rating” value [3] was 50. For the same compound, the “Velvetleaf plant response rating (0 to 100 scale)” value [4] was 0, the “Velvetleaf plant response rating” value [4] was 0 and the “Crabgrass, Large plant response rating” value [5] was 20. The “Plant response rating, Crabgrass, Large” value [5] was 30, the “Foxtail, Giant plant response rating” value [6] was 0 and the “Plant response rating, Foxtail, Giant” value [6] was 20. For the same compound, the “Pigweed plant response rating” value [7] was 100, the “Plant response rating, Pigweed” value [7] was 100 and the “Velvetleaf plant response rating” value [8] was 90. The “Plant response rating, Velvetleaf” value [8] was 100, the “Plant response rating (0 to 100), Wheat” value ([9]; 8 g ai/ha, postemergence) was 0 and the “Plant response rating (0 to 100), Wheat” value ([9]; 16 g ai/ha, postemergence) was 0. For the same compound, the “Wheat plant response rating” value ([9]; postemergence, visual rating) was 0, the “Plant response rating, Wheat” value ([9]; Postemergence, 62 g ai/ha) was 0 and the “Plant response rating (0 to 100), Foxtail, Giant” value ([10]; 8 g ai/ha, postemergence) was 0. The “Plant response rating (0 to 100), Foxtail, Giant” value ([10]; 16 g ai/ha, postemergence) was 10, the “Foxtail, Giant plant response rating” value ([10]; postemergence, visual rating) was 0 and the “Plant response rating, Foxtail, Giant” value ([10]; Postemergence, 62 g ai/ha) was 5. The “Plant response rating (0 to 100), Ragweed” value ([11]; 8 g ai/ha, postemergence) was 0, the “Plant response rating (0 to 100), Ragweed” value ([11]; 16 g ai/ha, postemergence) was 0 and the “Ragweed plant response rating” value ([11]; postemergence, visual rating) was 0. For the same compound, the “Plant response rating, Ragweed” value ([11]; Postemergence, 62 g ai/ha) was 0, the “Plant response rating (0 to 100), Soybean” value ([12]; 8 g ai/ha, postemergence) was 0 and the “Plant response rating (0 to 100), Soybean” value ([12]; 16 g ai/ha, postemergence) was 0. For the same compound, the “Soybean plant response rating” value ([12]; postemergence, visual rating) was 0, the “Plant response rating, Soybean” value ([12]; Postemergence, 62 g ai/ha) was 5 and the “Plant response rating (0 to 100), Oat, Wild” value ([13]; 8 g ai/ha, postemergence) was 0. For the same compound, the “Plant response rating (0 to 100), Oat, Wild” value ([13]; 16 g ai/ha, postemergence) was 0, the “Oat, Wild plant response rating” value ([13]; postemergence, visual rating) was 0 and the “Plant response rating, Oat, Wild” value ([13]; Postemergence, 62 g ai/ha) was 0. For the same compound, the “Plant response rating (0 to 100), Velvetleaf” value ([14]; 8 g ai/ha, postemergence) was 5, the “Plant response rating (0 to 100), Velvetleaf” value ([14]; 16 g ai/ha, postemergence) was 5 and the “Velvetleaf plant response rating” value ([14]; postemergence, visual rating) was 10. The “Plant response rating, Velvetleaf” value ([14]; Postemergence, 62 g ai/ha) was 10, the “Plant response rating (0 to 100), Chickweed” value ([15]; 8 g ai/ha, postemergence) was 0 and the “Plant response rating (0 to 100), Chickweed” value ([15]; 16 g ai/ha, postemergence) was 0. The “Chickweed plant response rating” value ([15]; postemergence, visual rating) was 50 and the “Plant response rating, Chickweed” value ([15]; Postemergence, 62 g ai/ha) was 70.
Fc1cccc(Oc2ncc(Cl)cn2)c1-n1cc(Cl)cn1 [Compound 177] was tested, and the “Plant response rating, Crabgrass, Large” value [1] was 100, the “Crabgrass, Large plant response rating” value [1] was 100 and the “Plant response rating, Foxtail, Giant” value [2] was 100. For the same compound, the “Foxtail, Giant plant response rating” value [2] was 100, the “Pigweed plant response rating (0 to 100 scale)” value [3] was 100 and the “Pigweed plant response rating” value [3] was 100. For the same compound, the “Velvetleaf plant response rating (0 to 100 scale)” value [4] was 80, the “Velvetleaf plant response rating” value [4] was 100 and the “Crabgrass, Large plant response rating” value [5] was 80. The “Plant response rating, Crabgrass, Large” value [5] was 100, the “Foxtail, Giant plant response rating” value [6] was 80 and the “Plant response rating, Foxtail, Giant” value [6] was 100. For the same compound, the “Pigweed plant response rating” value [7] was 100, the “Plant response rating, Pigweed” value [7] was 100 and the “Velvetleaf plant response rating” value [8] was 100. The “Plant response rating, Velvetleaf” value [8] was 100, the “Plant response rating (0 to 100), Wheat” value ([9]; 16 g ai/ha, postemergence) was 0 and the “Wheat plant response rating” value ([9]; postemergence, visual rating) was 0. The “Plant response rating, Wheat” value [9, 16] was 5, the “Plant response rating, Wheat” value ([9]; Postemergence, 62 g ai/ha) was 0 and the “Plant response rating (0 to 100), Foxtail, Giant” value ([10]; 16 g ai/ha, postemergence) was 5. The “Foxtail, Giant plant response rating” value ([10]; postemergence, visual rating) was 10, the “Plant response rating, Foxtail, Giant” value [10, 16] was 20 and the “Plant response rating, Foxtail, Giant” value ([10]; Postemergence, 62 g ai/ha) was 10. For the same compound, the “Plant response rating (0 to 100), Ragweed” value ([11]; 16 g ai/ha, postemergence) was 10, the “Ragweed plant response rating” value ([11]; postemergence, visual rating) was 15 and the “Plant response rating, Ragweed” value [11, 16] was 60. For the same compound, the “Plant response rating, Ragweed” value ([11]; Postemergence, 62 g ai/ha) was 55, the “Plant response rating (0 to 100), Soybean” value ([12]; 16 g ai/ha, postemergence) was 45 and the “Soybean plant response rating” value ([12]; postemergence, visual rating) was 65. For the same compound, the “Plant response rating, Soybean” value [12, 16] was 95, the “Plant response rating, Soybean” value ([12]; Postemergence, 62 g ai/ha) was 85 and the “Plant response rating (0 to 100), Oat, Wild” value ([13]; 16 g ai/ha, postemergence) was 5. For the same compound, the “Oat, Wild plant response rating” value ([13]; postemergence, visual rating) was 0, the “Plant response rating, Oat, Wild” value [13, 16] was 30 and the “Plant response rating, Oat, Wild” value ([13]; Postemergence, 62 g ai/ha) was 10. For the same compound, the “Plant response rating (0 to 100), Velvetleaf” value ([14]; 16 g ai/ha, postemergence) was 50, the “Velvetleaf plant response rating” value ([14]; postemergence, visual rating) was 70 and the “Plant response rating, Velvetleaf” value [14, 16] was 80. For the same compound, the “Plant response rating, Velvetleaf” value ([14]; Postemergence, 62 g ai/ha) was 70, the “Plant response rating (0 to 100), Chickweed” value ([15]; 16 g ai/ha, postemergence) was 50 and the “Chickweed plant response rating” value ([15]; postemergence, visual rating) was 50. For the same compound, the “Plant response rating, Chickweed” value [15, 16] was 85 and the “Plant response rating, Chickweed” value ([15]; Postemergence, 62 g ai/ha) was 55.
